The assay has as its target IGF1R (Homo sapiens, UniProt P08069). As to the kind of experiment: Cellular IGF-1R assay: inhibition of IGF1R phosphorylation in transduced Hek293 cells, capture ELISA (MSD). It is filed as cell-based. More on the design: Hek293 cells transduced with the corresponding receptors; expressed in transfected cells; host or cells: Hek293 (Hek293-IGF1R). The method, then: In this assay the activity of the compounds of the invention against Insulin-like growth factor I (IGF-1) induced autophosphorylation of the IGF-IR is determined. The assay is conducted as follows: Compound-mediated inhibition of IGF1R and INSR phosphorylation in Hek293 cells transduced with the corresponding receptors is assessed in a capture ELISA format using the MSD (Meso Scale Discovery) platform. Briefly, 30′000 cells washed and diluted in starvation medium (DMEM high glucose supplemented with 0.1% BSA) are seeded in 90 μL per well into 96-well plates pre-coated with poly-D-lysine (0.1 mg/mL in PBS/0). After 24 h incubation at 37° C. and 5% CO2, dose-response effects are determined with 3-fold serial compound dilutions, starting at 10 μM. The final vehicle concentration is 0.1% DMSO in all wells. Following pre-incubation with compounds for 1 h, receptor phosphorylation is triggered by a 10 min exposure to 1.0 ng/μL IGF for Hek293-IGF1R cells, and 5.0 ng/μL insulin for Hek293-InsR cells. Cell lysis is achieved by addition of 80 μL MSD lysis buffer per aspirated well, incubation on ice for 20 min, and a freeze-thaw cycle. Target phosphorylation is then assessed by transferring volumes corresponding to approx. 6 μg Hek293-IGF1R or 0.6 μg Hek293-InsR lysates to MSD assay plates pre-coated with total-IGF1R or total-InsR Abs, respectively. After incubation for 2 h at rt, wells are exposed for 1 hr to a rabbit monoclonal antibody (CST #3024, 1:1000) detecting pIGF1R(Tyr1135/1136) as well as pINSR(Tyr1150/1151). Immune complexes are detected by a SULFO-Tag™-coupled anti-rabbit IgG antibody in the presence of 150 μL MSD read-buffer. Light emission at 620 nm triggered by application of electric current is recorded on a MSD SectorImager 6000. Acquired raw data (mean Ru-ECL units) are processed in an Excel analysis template. The plate blank (MSD lysis buffer) is subtracted from all data points. The effect of a particular test compound concentration on receptor phosphorylation is expressed relative to the window defined by ligand-stimulated vs unstimulated control cells (set as 100%). IC50 values [nM] are determined using 4-parametric curve-fitting (XLfit software, V4.3.2). Alternatively, the assay can be conducted with a slightly different format; Compound-mediated inhibition of IGF-1R and InsR phosphorylation in HEK293 cells overexpressing the corresponding receptors were assessed by quantitative Western blot using an Odyssey infrared imager as readout.
Compound-mediated inhibition of IGF1R and INSR phosphorylation in Hek293 cells transduced with the corresponding receptors is assessed in a capture ELISA format using the MSD (Meso Scale Discovery) platform. Briefly, 30′000 cells washed and diluted in starvation medium (DMEM high glucose supplemented with 0.1% BSA) are seeded in 90 μL per well into 96-well plates pre-coated with poly-D-lysine (0.1 mg/mL in PBS/O). After 24 h incubation at 37° C. and 5% CO2, dose-response effects are determined with 3-fold serial compound dilutions, starting at 10 μM. The final vehicle concentration is 0.1% DMSO in all wells. Following pre-incubation with compounds for 1 h, receptor phosphorylation is triggered by a 10 min exposure to 1.0 ng/μL IGF for Hek293-IGF1R cells, and 5.0 ng/μL insulin for Hek293-InsR cells. Cell lysis is achieved by addition of 80 μL MSD lysis buffer per aspirated well, incubation on ice for 20 min, and a freeze-thaw cycle. Target phosphorylation is then assessed by transferring volumes corresponding to approx. 6 μg Hek293-IGF1R or 0.6 μg Hek293-lnsR lysates to MSD assay plates pre-coated with total-IGF1R or total-lnsR Abs, respectively. After incubation for 2 h at rt, wells are exposed for 1 hr to a rabbit monoclonal antibody (CST #3024, 1:1000) detecting pIGF1R(Tyr1135/1136) as well as pINSR(Tyr1150/1151). Immune complexes are detected by a SULFO-Tag™-coupled anti-rabbit IgG antibody in the presence of 150 μL MSD read-buffer. […]

Each structure is given as a SMILES string. pIC50: −log10 of the molar value.

Chain of IGF1R (P08069 31-1367): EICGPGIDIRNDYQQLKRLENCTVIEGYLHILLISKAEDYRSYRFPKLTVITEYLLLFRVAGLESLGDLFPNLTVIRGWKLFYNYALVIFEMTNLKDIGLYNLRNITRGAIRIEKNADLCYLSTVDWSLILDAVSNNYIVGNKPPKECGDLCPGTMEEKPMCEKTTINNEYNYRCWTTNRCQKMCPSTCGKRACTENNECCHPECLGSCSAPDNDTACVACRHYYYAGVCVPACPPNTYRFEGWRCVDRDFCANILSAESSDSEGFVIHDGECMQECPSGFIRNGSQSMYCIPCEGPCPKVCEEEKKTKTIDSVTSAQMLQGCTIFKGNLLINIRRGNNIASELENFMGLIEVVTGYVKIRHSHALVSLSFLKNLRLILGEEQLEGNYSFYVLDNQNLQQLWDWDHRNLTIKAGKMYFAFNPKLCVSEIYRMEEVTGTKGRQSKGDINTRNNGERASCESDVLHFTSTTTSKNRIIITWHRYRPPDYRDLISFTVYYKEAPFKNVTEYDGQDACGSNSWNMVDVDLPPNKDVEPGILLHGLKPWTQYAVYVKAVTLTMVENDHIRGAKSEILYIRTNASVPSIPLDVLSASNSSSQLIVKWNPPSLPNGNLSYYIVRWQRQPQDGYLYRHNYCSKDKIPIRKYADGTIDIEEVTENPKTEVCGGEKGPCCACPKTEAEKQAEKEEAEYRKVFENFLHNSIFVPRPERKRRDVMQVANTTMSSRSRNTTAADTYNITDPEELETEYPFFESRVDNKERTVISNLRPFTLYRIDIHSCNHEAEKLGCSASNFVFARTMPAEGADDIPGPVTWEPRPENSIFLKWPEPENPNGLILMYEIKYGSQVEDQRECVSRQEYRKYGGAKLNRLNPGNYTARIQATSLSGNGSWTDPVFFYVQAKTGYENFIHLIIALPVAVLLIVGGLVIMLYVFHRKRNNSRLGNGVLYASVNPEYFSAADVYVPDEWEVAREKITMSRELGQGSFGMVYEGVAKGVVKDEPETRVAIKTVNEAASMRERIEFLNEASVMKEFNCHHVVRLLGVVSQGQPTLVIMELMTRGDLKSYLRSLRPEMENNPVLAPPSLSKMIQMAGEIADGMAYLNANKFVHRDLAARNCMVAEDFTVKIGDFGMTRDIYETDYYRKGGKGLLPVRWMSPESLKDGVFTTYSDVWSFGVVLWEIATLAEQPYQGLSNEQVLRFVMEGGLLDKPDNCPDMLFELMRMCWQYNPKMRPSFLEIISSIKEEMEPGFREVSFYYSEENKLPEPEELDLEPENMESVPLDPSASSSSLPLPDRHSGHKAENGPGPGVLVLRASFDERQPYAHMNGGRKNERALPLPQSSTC

For `Nc1ncnc2c1c(-c1ccc3c(c1)OC(c1ccccn1)CC3)cn2[C@H]1C[C@@H](CN2CCS(=O)(=O)CC2)C1` (mixture of isomers) [Example 54, (±)-7-(cis-3-(1,1-dioxo-thiomorpholin-4-ylmethyl)cyclobutyl)-5-(2-(pyridin-2-yl)chroman-7-yl)-7H-pyrrolo[2,3-d]pyrimidin-4-amine], the pIC50 (commonly the negative decadic logarithm of the IC50, by convention in mol/L) is 7.35.
On to `CC(=O)N[C@H]1CC[C@@H](n2cc(-c3ccc4c(c3)OC(c3ccccc3)CC4)c3c(N)ncnc32)CC1` (mixture of isomers) [Example 55, (±)-N-(cis-4-(4-amino-5-(2-phenylchroman-7-yl)-7H-pyrrolo[2,3-d]pyrimidin-7-yl)cyclohexyl)acetamide], for which the pIC50 is 6.97.
The figure for `Nc1ncnc2c1c(-c1ccc3c(c1)OC(c1ccccn1)CC3)cn2[C@H]1C[C@@](O)(CO)C1` (mixture of isomers) [Example 56, (±)-(E)-3-(4-amino-5-(2-(pyridin-2-yl)chroman-7-yl)-7H-pyrrolo[2,3-d]pyrimidin-7-yl)-1-(hydroxymethyl)cyclobutanol] is 6.26; for `Nc1ncnc2c1c(-c1ccc3c(c1)OC(c1ccccn1)CC3)cn2[C@H]1C[C@@H](CN2CC[S+]([O-])CC2)C1` (mixture of isomers) [Example 63, (±)-7-(cis-3-(1-oxo-thiomorpholin-4-ylmethyl)cyclobutyl)-5-(2-(pyridin-2-yl)chroman-7-yl)-7H-pyrrolo[2,3-d]pyrimidin-4-amine] it is 6.96.
The figure for `Nc1ncnc2c1c(-c1ccc3c(c1)OC(C1CCCO1)CC3)cn2[C@H]1CC[C@@H](N2CCS(=O)(=O)CC2)CC1` (mixture of isomers) [Example 64, (±)-7-[cis-4-(1,1-dioxo-1λ6-thiomorpholin-4-yl)-cyclohexyl]-5-[2-trans-(tetrahydro-furan-2-yl)chroman-7-yl]-7H-pyrrolo[2,3-d]pyrimidin-4-ylamine] is 7.23; for `Nc1ncnc2c1c(-c1ccc3c(c1)OC(C1CCCO1)CC3)cn2[C@H]1CC[C@@H](N2CCS(=O)(=O)CC2)CC1` (mixture of isomers) [Example 65, (±)-7-[cis-4-(1,1-dioxo-1λ6-thiomorpholin-4-yl)-cyclohexyl]-5-[2-cis-(tetrahydro-furan-2-yl)chroman-7-yl]-7H-pyrrolo[2,3-d]pyrimidin-4-ylamine] it is 7.41.
`Nc1nccn2c1c(-c1ccc3c(c1)O[C@@H](c1ccccc1)C=C3)nc2[C@H]1C[C@@H](CO)C1` (relative stereo) [Example 22, (R,S)-{cis-3-[8-Amino-1-(2-phenyl-2H-chromen-7-yl)-imidazo[1,5-a]pyrazin-3-yl]-cyclobutyl}-methanol] showed a pIC50 of 6.75.
Take `Nc1nccn2c1c(-c1ccc3c(c1)OC(c1ccccc1)CC3)nc2[C@H]1C[C@@H](Cn2ccnc2CO)C1` (relative stereo) [Example 39, (1-{cis-3-[8-Amino-1-(2-phenyl-chroman-7-yl)-imidazo[1,5-a]pyrazin-3-yl]-cyclobutylmethyl}-1H-imidazol-2-yl)-methanol]: the pIC50 was 6.66.
Compound `Nc1ncnc2c1c(-c1ccc3c(c1)OC(c1ccccc1)CC3)cn2[C@H]1C[C@@H](O)C1` (relative stereo) [Example 48, cis-3-[4-Amino-5-(2-phenyl-chroman-7-yl)-pyrrolo[2,3-d]pyrimidin-7-yl]-cyclobutanol] showed a pIC50 of 7.06.
`Nc1ncnc2c1c(-c1ccc3c(c1)OC(c1ccccc1)CC3)cn2[C@H]1C[C@H](O)C1` (relative stereo) [Example 49, trans-3-[4-Amino-5-(2-phenyl-chroman-7-yl)-pyrrolo[2,3-d]pyrimidin-7-yl]-cyclobutanol] had a pIC50 of 7.02.
In turn, `CCOCC1CCc2ccc(-c3cn([C@H]4C[C@@H](CN5CC[S+]([O-])CC5)C4)c4ncnc(N)c34)cc2O1` (relative stereo) [Example 50, 5-(2-Ethoxymethyl-chroman-7-yl)-7-[cis-3-(1-oxo-thiomorpholin-4-ylmethyl)-cyclobutyl]-7H-pyrrolo[2,3-d]pyrimidin-4-ylamine] had a pIC50 of 7.44.
With `Nc1ncnc2c1c(-c1ccc3c(c1)OC(c1ccccc1)CC3)cn2C1CC(O)(CO)C1` (single isomer, unassigned) [Example 27], the pIC50 is 6.95 to 7.51.
